Experimental data: the NIST ThermoML archive (doi:10.1016/j.tca.2012.07.034)

Details: Liquid, DSC

CCCCCCCC/C=C\CCCCCCCC(=O)O [(Z)-9-octadecenoic acid]
Details | vapor or sublimation pressure [kPa]
496.7 K | 1.333
513.1 K | 2.666
524.7 K | 4
532.1 K | 5.333
538.8 K | 6.666
543.8 K | 7.999
547.4 K | 9.333

CCCCCCCCCCCC(=O)O [dodecanoic acid]
Details | vapor or sublimation pressure [kPa]
444.6 K | 1.333
458.9 K | 2.666
468.5 K | 4
475 K | 5.333
479.6 K | 6.666
484.8 K | 7.999
490.5 K | 9.333

CCCCCCCCCCCCCCCC(=O)O [hexadecanoic acid]
Details | vapor or sublimation pressure [kPa]
483.3 K | 1.333
498.6 K | 2.666
509 K | 4
517.3 K | 5.333
523.4 K | 6.666
527.9 K | 7.999
533.4 K | 9.333

CCCCCCCCCCCCCCCCCC(=O)O [octadecanoic acid]
Details | vapor or sublimation pressure [kPa]
501.3 K | 1.333
519.1 K | 2.666
528.9 K | 4
535.9 K | 5.333
543.7 K | 6.666
548.7 K | 7.999
553.2 K | 9.333

CCCCCCCCCCCCCC(=O)O [tetradecanoic acid]
Details | vapor or sublimation pressure [kPa]
464.6 K | 1.333
480.8 K | 2.666
489.5 K | 4
497.2 K | 5.333
503.1 K | 6.666
508.2 K | 7.999
512.6 K | 9.333
